Laboratory results published in patent US6022969A, “Compositions and methods for treating mast-cell mediated conditions” (AXYS Pharmaceuticals, Inc., priority 1995, dated 2000).
pKi: −log10 of the molar value.

Legend:
antigen-challenged sheep [1] = experiment: Allergic sheep model of asthma: airway hyperresponsiveness to carbachol (PC400) 24 hours after antigen challenge; format: in vivo
Protocol: (§1) The initial asthmatic response can be evaluated in guinea pigs, and dogs, and particularly, with a basenji-greyhound cross strain which develops nonspecific airway hyperresponsiveness to numerous nonallergenic substances, such as methacholine and citric acid. […] In dual responding animals, the initial asthmatic response (IAR) is followed by a late asthmatic response (LAR) at 6-8 hours post-exposure.
(§2) The allergic sheep model of asthma was employed for he in vivo evaluation of the compounds of the invention as antiasthmatics. These methods have been published previously (see Abraham et al. (1983) Am. Rev. Respir. Dis. 128:839-844; Allegra et al. (1983) J. Appl. Physiol. 55:726-730; Russi et al. (1985) J. Appl. Physiol. 59:1416-1422; Soler et al. (1989) J. Appl. Physiol. 67:406-413. Each sheep serves as its own control. Body weights for these animals ranged from 20-50 kilograms.
Twenty-four hours after antigen challenge in both the control and drug trial, the sheep developed airway hyperresponsiveness. Airway hyperresponsiveness is expressed as PC400, the concentration of carbachol that causes a 400% increase in SRL; therefore, a decrease in PC400 indicates hyperresponsiveness. […] The number of breath units fell to 12 for those animals in the control group.

tryptase = experiment: In vitro tryptase inhibition assay (hydrolysis of tosyl-Gly-Pro-Lys-p-nitroanilide); format: biochemical, human; details: for pKi: tosyl-Gly-Pro-Lys-p-nitroanilide 0.5 mM, pH 8.2, 1 h pre-incubation, room temperature
Protocol: The compounds to be assayed (approximately 1 mg) were dissolved in 200 μL dimethylsulfoxide (DMSO) and diluted 1:10 into buffer containing 50 millimolar (mM) Tris-HCl (pH 8.2), 100 mM sodium chloride, and 0.05% polyoxyethylenesorbitan monolaurate (Tween-20®, available from Sigma, St. Louis, Mo.). Seven additional threefold dilutions were made from the initial dilution into the same buffer supplemented with 10% DMSO. Aliquots (50 microliters, μL) from each of the eight dilutions in the series were transferred to individual wells in a 96-well U-bottom microtiter plate. 25 μL of a stock solution of tryptase was added to each well and the samples were mixed and incubated for one hour at room temperature (tryptase was purified from human lung and skin tissue preparations, HMC-1 (human mast cell line) and also obtained from commercial sources (ICN Biomedicals, Irvine, Calif.; Athens Research & Technology, Athens, Ga.)). […] The tryptase solution was prepared by placing 60 μg/mL of tryptase into solution with 10 mM MES (2-[N-Morpholino]ethane sulfonic acid) containing 2 mM CaCl2, 20% glycerol and 50 μg/mL heparin. The enzyme reaction was initiated with the addition of the synthetic tripeptide substrate, tosyl-Gly-Pro-Lys-p-nitroanilide (available from Sigma, 25 μL; 0.5 mM final concentration).
However, Ki ' varies with the enzyme concentration used in the enzyme assay. […] The y-intercept of a replot of IC50 (ordinate) versus tryptase concentration (abscissa) produces a value for Ki '.
The inhibition constants (Ki ', micromolar (μM)) were determined for the compounds of the present invention.

antigen-challenged sheep [2] = experiment: Allergic sheep model of asthma: Specific Lung Resistance (SRL) after antigen challenge; format: in vivo
Protocol: as §1
The allergic sheep model (see below) was used to evaluate the potential antiasthmatic effects of the compounds of the present invention.
as §2
The peak early response was taken as the average of the maximum values occurring immediately post-challenge. Peak late responses were calculated by averaging the maximum response values obtained for each animal within the 6-8 hour time period. This approach is conservative and eliminates the possible reduction in the late response due simply to averaging.
Three doses of the compound (2 mg in 10 mL water) were administered to sheep through an intergastric tube 1 hr before challenge, 4 hours post-challenge, and 24 hours post-challenge.

Molecule	airway function in antigen challenged sheep (aerosol) (antigen-challenged sheep [1]; aerosol 3 x 50 μg (FIG. 2))	airway hyperresponsiveness, PC400 (aerosol) (antigen-challenged sheep [1]; aerosol 3 x 50 μg, 24 h after challenge, baseline 32, control 12 (FIG. 2))	airway function / PC400 (aerosol pretreatment) (antigen-challenged sheep [1]; aerosol predosing 0.5 mg/day x 3 days plus 0.5 mg 0.5 h before challenge (FIG. 8))	onset of hyperresponsiveness (PC400, aerosol), result in words (antigen-challenged sheep [1]; aerosol, 24 h after antigen challenge, Compound 3 3 x 50 μg (FIG. 2), Compound 2 3 x 0.1 mg (FIG. 6))	type of tryptase inhibition (tryptase; apparent affinity comparable to enzyme concentration)	early and late responses to antigen challenge, SRL (aerosol) (antigen-challenged sheep [2]; Compound 3: aerosol 50 μg 0.5 h before, 4 h and 24 h after challenge, n=3 (FIG. 1), Compound 2: aerosol 3 x 0.1 mg (FIG. 5))	early and late phase response to antigen challenge, SRL (aerosol pretreatment) (antigen-challenged sheep [2]; aerosol predosing 0.5 mg/day x 3 days plus 0.5 mg 0.5 h before challenge (FIG. 7))	early phase SRL (oral) (antigen-challenged sheep [2]; intragastric 2 mg in 10 mL water 1 h before, 4 h and 24 h post-challenge, untreated about 250)	late phase SRL (oral) (antigen-challenged sheep [2]; intragastric 2 mg in 10 mL water 1 h before, 4 h and 24 h post-challenge, untreated over 200)	anti-asthmatic properties when delivered orally (antigen-challenged sheep [2]; oral, 3 x 2 mg)	pKi (tryptase)
N=C(N)Nc1ccc(CNC(=O)N2CCN(C(=O)O[C@H]3CCC[C@@H](OC(=O)N4CCN(C(=O)NCc5ccc(NC(=N)N)cc5)CC4)CCC3)CC2)cc1 [Compound 3, cis-1,5-Cyclooctylene bis[4-(4-guanidinobenzylcarbamoyl)-1-piperazinecarboxylate]]	significant improvement in airway function	~32 breath units	significant improvement in airway function	block the onset of hyperresponsiveness	tight binding inhibitor	significant attenuation of the early and late responses to the antigen challenge	significant attenuation of early and late phase response to antigen challenge	about 175	about 50	significant anti-asthmatic properties when delivered orally	–
cis-1,5-tetracyclo[3.3.1.1^3,7 ]decylenedimethylene bis[4-(4-guanidinobenzylcarbamoyl)-1-piperazinecarboxaldehyde] [Compound 32]	–	–	–	–	–	–	–	–	–	–	7.91
trans-1,4-cyclohexylene bis[4-(4-guanidinobenzylcarbamoyl)-1-piperazinecarboxaldehyde] [Compound 21]	–	–	–	–	–	–	–	–	–	–	7.22
